# Measured values taken from patent US8633206B2, “Pyrrolo[2,3-D]pyrimidine compounds” (Pfizer Inc., priority 2009, dated 2014).
# Key:
# Type in all cases: biochemical
# JAK3 = JAK3 (Homo sapiens (Human), UniProt P52333); experiment: JAK enzymatic assay (peptide mobility shift), JAK3; details: recombinant JAK3 1 nM, JAKtide peptide, 90 minutes
# Description: (§1) Recombinant JAK1 (Catalog Number PV4775), JAK2 (Catalog Number PV4210) and JAK3 (Catalog Number PV3855) were purchased from (Invitrogen Corporation, Madison, Wis.). […] Adenosine 5′-triphosphate (ATP) was obtained from (Sigma Chemical Company, St. Louis, Mo.). […] Coating Reagent 3 was purchased from (Caliper Life Sciences, Hopkinton, Mass.).
# (§2) Compounds were diluted serially in 100% dimethyl sulfoxide and tested in an 11 point dose response in duplicate or quadruplicate (200 nl of compound/DMSO was added per 10 L reaction). […] The assay was run for 240 minutes for JAK1, 150 minutes for JAK2, 90 minutes for JAK3 and 70 minutes for Tyk2. […] The plates were placed on a LabChip 3000 (LC3000) instrument from (Caliper Life Sciences) to measure the formation of phosphorylated peptide. Data was analyzed using Hits Well Analyzer Software from (Caliper Life Sciences) to obtain the amount of product formed.
# (§3) Data was then imported into an internal application where each data point is expressed as % inhibition based on uninhibited and no enzyme controls. Dose-response data is then fit using a 4 parameter logistic equation (Equation 1) to determine an IC50.
# JAK2 = JAK2 (Homo sapiens (Human), UniProt O60674); experiment: JAK enzymatic assay (peptide mobility shift), JAK2; details: recombinant JAK2 2 nM, JAKtide peptide, 150 minutes
# Excerpt: Recombinant JAK1 (Catalog Number PV4775), JAK2 (Catalog Number PV4210) and JAK3 (Catalog Number PV3855) were purchased from (Invitrogen Corporation, Madison, Wis.). Tyk2 (His-Tyk2 (888-1182, C936S, C1142S)) used in this study was expressed and purified at Pfizer Laboratories. Adenosine 5′-triphosphate (ATP) was obtained from (Sigma Chemical Company, St. Louis, Mo.). […] Coating Reagent 3 was purchased from (Caliper Life Sciences, Hopkinton, Mass.).
# A peptide mobility shift assay was used to quantify the phosphorylation of the JAKtide (JAK2 and JAK3) or the IRS-1 peptide (JAK1 and Tyk2). Reactions were carried out in a 384-well plate (Matrical MP-101) in a 10 L total volume. […] Compounds were diluted serially in 100% dimethyl sulfoxide and tested in an 11 point dose response in duplicate or quadruplicate (200 nl of compound/DMSO was added per 10 L reaction). The reactions were initiated by the addition of enzyme to the final concentration of 2 nM JAK2, 1 nM JAK3, 12 nM Tyk2 or 20 nM JAK1. The assay was run for 240 minutes for JAK1, 150 minutes for JAK2, 90 minutes for JAK3 and 70 minutes for Tyk2. The assays were stopped at the specified times with 20 uL of 140 mM HEPES, 22.5 mM EDTA and 0.15% Coating Reagent 3. The plates were placed on a LabChip 3000 (LC3000) instrument from (Caliper Life Sciences) to measure the formation of phosphorylated peptide. Data was analyzed using Hits Well Analyzer Software from (Caliper Life Sciences) to obtain the amount of product formed.
# as §3
# JAK1 = JAK1 (Homo sapiens (Human), UniProt P23458); experiment: JAK enzymatic assay (peptide mobility shift), JAK1; details: recombinant JAK1 20 nM, IRS-1 peptide, 240 minutes
# Description: as §1, §2, §3
# JAK2, sequence (O60674 808-1132): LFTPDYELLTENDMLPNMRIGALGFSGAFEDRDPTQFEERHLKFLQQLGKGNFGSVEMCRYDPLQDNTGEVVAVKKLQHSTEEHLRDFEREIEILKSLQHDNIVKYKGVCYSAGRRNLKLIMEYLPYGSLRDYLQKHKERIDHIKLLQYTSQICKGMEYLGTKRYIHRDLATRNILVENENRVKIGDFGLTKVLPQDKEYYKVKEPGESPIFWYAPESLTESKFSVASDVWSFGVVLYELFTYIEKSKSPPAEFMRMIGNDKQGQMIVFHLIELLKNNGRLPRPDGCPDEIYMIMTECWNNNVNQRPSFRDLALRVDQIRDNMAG
# JAK1, sequence (P23458 whole entry): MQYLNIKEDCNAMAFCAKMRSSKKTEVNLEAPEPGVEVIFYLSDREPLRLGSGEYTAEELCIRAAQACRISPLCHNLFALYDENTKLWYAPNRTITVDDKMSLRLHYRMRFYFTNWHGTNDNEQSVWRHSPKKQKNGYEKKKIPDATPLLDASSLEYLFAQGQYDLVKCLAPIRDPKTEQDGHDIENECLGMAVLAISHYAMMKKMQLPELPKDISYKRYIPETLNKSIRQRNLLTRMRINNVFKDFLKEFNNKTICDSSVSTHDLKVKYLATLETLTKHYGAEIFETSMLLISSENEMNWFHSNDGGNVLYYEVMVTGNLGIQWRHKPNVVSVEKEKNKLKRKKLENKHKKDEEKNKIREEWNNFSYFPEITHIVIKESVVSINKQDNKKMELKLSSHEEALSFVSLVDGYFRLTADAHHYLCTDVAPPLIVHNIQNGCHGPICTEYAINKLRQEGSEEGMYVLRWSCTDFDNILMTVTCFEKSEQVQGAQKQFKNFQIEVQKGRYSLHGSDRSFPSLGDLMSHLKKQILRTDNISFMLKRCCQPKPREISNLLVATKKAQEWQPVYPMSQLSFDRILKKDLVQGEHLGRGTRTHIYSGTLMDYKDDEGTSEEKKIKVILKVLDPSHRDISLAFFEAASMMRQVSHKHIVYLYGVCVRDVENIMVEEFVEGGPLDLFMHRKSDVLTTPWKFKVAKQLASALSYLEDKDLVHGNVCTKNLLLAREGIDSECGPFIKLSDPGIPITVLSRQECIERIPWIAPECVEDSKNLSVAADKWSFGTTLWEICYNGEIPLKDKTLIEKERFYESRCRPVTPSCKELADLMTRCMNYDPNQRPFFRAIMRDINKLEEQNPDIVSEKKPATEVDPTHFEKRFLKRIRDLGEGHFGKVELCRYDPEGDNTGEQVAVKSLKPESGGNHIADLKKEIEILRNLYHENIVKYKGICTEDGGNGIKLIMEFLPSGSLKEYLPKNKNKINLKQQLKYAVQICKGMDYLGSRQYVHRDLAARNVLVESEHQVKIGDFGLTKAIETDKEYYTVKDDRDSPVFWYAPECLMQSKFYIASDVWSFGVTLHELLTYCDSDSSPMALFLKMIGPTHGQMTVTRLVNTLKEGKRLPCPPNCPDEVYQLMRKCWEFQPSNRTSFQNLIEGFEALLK
# JAK3, sequence (P52333 781-1124): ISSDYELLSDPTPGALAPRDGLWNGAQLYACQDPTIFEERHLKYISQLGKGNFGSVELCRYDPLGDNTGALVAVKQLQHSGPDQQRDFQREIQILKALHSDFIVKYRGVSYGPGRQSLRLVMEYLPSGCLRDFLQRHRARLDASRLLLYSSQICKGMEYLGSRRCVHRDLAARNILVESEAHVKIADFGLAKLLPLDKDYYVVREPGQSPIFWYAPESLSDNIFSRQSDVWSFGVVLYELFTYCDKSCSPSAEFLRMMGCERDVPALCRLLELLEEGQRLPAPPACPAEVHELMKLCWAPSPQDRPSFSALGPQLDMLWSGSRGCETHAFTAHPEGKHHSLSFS
Structure (SMILES),IC50 (JAK3) [nM],IC50 (JAK2) [nM],IC50 (JAK1) [nM]
"CN(c1ncnc2[nH]ccc12)[C@H]1CC[C@H](CS(=O)(=O)N2CCN(c3ncccc3C(=O)NC3CC3)CC2)CC1 [Example 121, N-cyclopropyl-2-{4-[({trans-4-[methyl(7H-pyrrolo[2,3-d]pyrimidin-4-yl)amino]-cyclohexyl}methyl)sulfonyl]piperazin-1yl}nicotinamide]",595,43.1,10.4
"CN(c1ncnc2[nH]ccc12)[C@H]1CC[C@H](CS(=O)(=O)N2CCC(CC(N)=O)CC2)CC1 [Example 55, 2-{1-[({trans-4-[methyl(7H-pyrrolo[2,3-d]pyrimidin-4-yl)amino]cyclohexyl}-methyl)sulfonyl]piperidin-4-yl}-acetamide]",681,84.8,20.1
"CN(c1ncnc2[nH]ccc12)[C@H]1CC[C@H](CS(=O)(=O)N2CC[C@H](c3ncccn3)C2)CC1 [Example 87, N-methyl-N-(trans-4-{[(3-pyrimidin-2-ylpyrrolidin-1-yl)sulfonyl]methyl}cyclo-hexyl)-7H-pyrrolo[2,3-d]pyrimidin-4-amine]",55.7,5.72,3.27
"CN(c1ncnc2[nH]ccc12)[C@H]1CC[C@H](CS(=O)(=O)N2CC[C@@H](c3ccccc3)C2)CC1 [Example 100, N-methyl-N-(trans-4-{[(3-phenylpyrrolidin-1-yl)sulfonyl]methyl}cyclo-hexyl)-7H-pyrrolo[2,3-d]pyrimidin-4-amine]",414,40.7,6.89
"CN(c1ncnc2[nH]ccc12)[C@H]1CC[C@H](CS(=O)(=O)N2CCC(C#N)CC2)CC1 [Example 42, 1-[({trans-4-[methyl(7H-pyrrolo[2,3-d]pyrimidin-4-yl)amino]cyclohexyl}-methyl)sulfonyl]piperidine-4-carbonitrile]",431,66.9,16.5
"CN(c1ncnc2[nH]ccc12)[C@H]1CC[C@H](CS(=O)(=O)N2CCC[C@H](C#N)C2)CC1 [Example 64, 1-[({trans-4-[methyl(7H-pyrrolo[2,3-d]pyrimidin-4-yl)amino]cyclohexyl}-methyl)sulfonyl]piperidine-3-carbonitrile]",263,32.1,2.71
"CN(c1ncnc2[nH]ccc12)[C@H]1CC[C@H](CS(=O)(=O)N2CCC(C)(O)C2)CC1 (stereo partly drawn) [Example 137, 3-methyl-1-[({trans-4-[methyl(7H-pyrrolo[2,3-d]pyrimidin-4-yl)amino]cyclohexyl}methyl)sulfonyl]pyrrolidin-3-ol]",0.302,,0.00777
"CN(c1ncnc2[nH]ccc12)[C@H]1CC[C@H](CS(=O)(=O)N2CCC(CS(=O)(=O)CC3CC3)CC2)CC1 [Example 49, N-(trans-4-{[(4-{[(cyclopropylmethyl)sulfonyl]-methyl}piperidin-1-yl)sulfonyl]-methyl}-cyclohexyl)-N-methyl-7H-pyrrolo[2,3-d]pyrimidin-4-amine]",491,,11.7
"CN(c1ncnc2[nH]ccc12)[C@H]1CC[C@H](CS(=O)(=O)N2CC[C@](C)(O)C2)CC1 [Example 99, 3-methyl-1-[({trans-4-[methyl(7H-pyrrolo[2,3-d]pyrimidin-4-yl)amino]cyclohexyl}methyl)-sulfonyl]pyrrolidin-3-ol]",322,,8.34
"CN(c1ncnc2[nH]ccc12)[C@H]1CC[C@H](CS(=O)(=O)N2CC(F)C2)CC1 [Example 112, N-(trans-4-{[(3-fluoroazetidin-1-yl)-sulfonyl]-methyl}-cyclohexyl)-N-methyl-7H-pyrrolo[2,3 d]pyrimidin-4-amine]",143,,12.5
"C[C@@H]1C[C@@H](CS(=O)(=O)N2CC[C@@H](CO)C2)CC[C@@H]1N(C)c1ncnc2[nH]ccc12 [Example 132, {(3R)-1-[({(1S,3R,4S)-3-methyl-4-[methyl(7H-pyrrolo[2,3-d]pyrimidin-4-yl)amino]cyclohexyl}methyl)-sulfonyl]pyrrolidin-3-yl}methanol]",51.2,,6.5
"CN(c1ncnc2[nH]ccc12)[C@H]1CC[C@H](CS(=O)(=O)N2CCC[C@H](C(N)=O)C2)CC1 [Example 59, 1-[({trans-4-[methyl(7H-pyrrolo[2,3-d]pyrimidin-4-yl)amino]cyclohexyl}methyl)-sulfonyl]piperidine-3-carboxamide]",222,,6.45
"CN(c1ncnc2[nH]ccc12)[C@H]1CC[C@H](CS(=O)(=O)N2CCS(=O)(=O)CC2)CC1 [Example 126, N-(trans-4-{[(1,1-dioxidothiomorpholin-4-yl)sulfonyl]methyl}cyclo-hexyl)-N-methyl-7H-pyrrolo[2,3-d]pyrimidin-4-amine]",587,,19.4
"CN(c1ncnc2[nH]ccc12)[C@H]1CC[C@H](CS(=O)(=O)N2CC(c3cccnc3)C2)CC1 [Example 111, N-methyl-N-(trans-4-{[(3-pyridin-3-ylazetidin-1-yl)sulfonyl]methyl}cyclo-hexyl)-7H-pyrrolo[2,3-d]pyrimidin-4-amine]",346,,22.7
"CC[C@H](O)C1CCN(S(=O)(=O)C[C@H]2CC[C@H](N(C)c3ncnc4[nH]ccc34)CC2)CC1 [Example 53, 1-{1-[({trans-4-[methyl(7H-pyrrolo[2,3-d]pyrimidin-4-yl)amino]cyclohexyl}-methyl)sulfonyl]piperidin-4-yl}propan-1-ol]",673,,22.8
"CN(c1ncnc2[nH]ccc12)[C@H]1CC[C@H](CS(=O)(=O)N2CCC(N)CC2)CC1 [Example 11, N-(trans-4-{[(4-amino-piperidin-1-yl)sulfonyl]-methyl}cyclohexyl)-N-methyl-7H-pyrrolo[2,3-d]-pyrimidin-4-amine]",2270,,42.3
"CN(c1ncnc2[nH]ccc12)[C@H]1CC[C@H](CS(=O)(=O)N2CCC[C@H]2CN2CCCC2)CC1 [Example 108, N-methyl-N-[trans-4-({[(2S)-2-(pyrrolidin-1-ylmethyl)pyrrolidin-1-yl]sulfonyl}methyl)cyclo-hexyl]-7H-pyrrolo[2,3-d]pyrimidin-4-amine]",813,,4.73
"C[C@@H]1C[C@@H](CS(=O)(=O)N2CCC(CO)CC2)CC[C@@H]1N(C)c1ncnc2[nH]ccc12 [Example 130, {1-[({(1S,3R,4S)-3-methyl-4-[methyl(7H-pyrrolo[2,3-d]pyrimidin-4-yl)amino]cyclohexyl}-methyl)sulfonyl]piperidin-4-yl}methanol]",42.9,,7.41
"CCOCCO[C@@H]1CCN(S(=O)(=O)C[C@H]2CC[C@H](N(C)c3ncnc4[nH]ccc34)CC2)C1 [Example 28, N-[trans-4-({[(3R)-3-(2-ethoxyethoxy)pyrrolidin-1-yl]sulfonyl}methyl)-cyclohexyl]-N-methyl-7H-pyrrolo[2,3-d]pyrimidin-4-amine]",,16.8,6.31
"C[C@H]1CCCN1S(=O)(=O)C[C@H]1CC[C@H](N(C)c2ncnc3[nH]ccc23)CC1 [Example 86, N-methyl-N-(trans-4-{[(2-methylpyrrolidin-1-yl)-sulfonyl]methyl}cyclohexyl)-7H-pyrrolo[2,3-d]-pyrimidin-4-amine]",457,,6.47
"CC1CC(CS(=O)(=O)N2CC[C@H](CO)C2)CCC1N(C)c1ncnc2[nH]ccc12 (stereo partly drawn) [Example 133, ((3S)-1-((3-methyl-4-(methyl(7H-pyrrolo[2,3-d]pyrimidin-4-yl)amino)cyclohexyl)methylsulfonyl)pyrrolidin-3-yl)methanol]",0.0421,,0.00508
"CN(c1ncnc2[nH]ccc12)[C@H]1CC[C@H](CS(=O)(=O)N2CCCC(CN3CCCC3)C2)CC1 (stereo partly drawn) [Example 8, N-methyl-N-[trans-4-({[3-(pyrrolidin-1-ylmethyl)-piperidin-1-yl]sulfonyl}-methyl)cyclohexyl]-7H-pyrrolo[2,3-d]pyrimidin-4-amine]",3280,,14.8
